Reference: ChEMBL document CHEMBL1201862, “PubChem BioAssay data set” (2004)
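Each compound was tested at five concentrations against cells in 96-well plates for 48 hours. Here, GI50 denotes the concentration required for 50% inhibition of growth.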 The source made the active and inactive calls. No stated cut-off is given here; in the data, active = GI50 up to about 1.1 µM and inactive = higher.

Assays:
Assay in all cases: growth of human tumour cells (NCI), 48 h
UO-31 = tested on: UO-31
U-251 = tested on: U-251
A549 = tested on: A549
SK-MEL-2 = tested on: SK-MEL-2
K562 = tested on: K562
HCC 2998 = tested on: HCC 2998
LOX IMVI = tested on: LOX IMVI
SF-539 = tested on: SF-539
M14 = tested on: M14
SNB-75 = tested on: SNB-75
SK-MEL-28 = tested on: SK-MEL-28
NCI-H226 = tested on: NCI-H226
MOLT-4 = tested on: MOLT-4
OVCAR-8 = tested on: OVCAR-8
786-0 = tested on: 786-0

Measured: GI50

O=C(NN1C(=O)C(Cl)C1c1cccc(O)c1)c1ccccc1O (stereo not given)
inactive: UO-31 > 100 µM | U-251 > 100 µM | A549 > 100 µM | SK-MEL-2 > 100 µM | K562 > 100 µM | HCC 2998 > 100 µM | LOX IMVI > 100 µM | SF-539 > 100 µM | M14 > 100 µM | SNB-75 > 100 µM | SK-MEL-28 > 100 µM | NCI-H226 > 100 µM | MOLT-4 > 100 µM | OVCAR-8 > 100 µM

O=c1[nH]c2cc(-c3ccccc3)nc-2nn1-c1c(Cl)cc(Cl)cc1Cl
inactive: UO-31 22.3 µM | U-251 19.1 µM | A549 37.6 µM | SK-MEL-2 26.5 µM | K562 41.1 µM | HCC 2998 4.03 µM | LOX IMVI 24.3 µM | SF-539 19.4 µM | M14 23.9 µM | SK-MEL-28 > 100 µM | 786-0 30.8 µM | NCI-H226 23.7 µM | MOLT-4 22.5 µM | OVCAR-8 37.4 µM

C[C@]12CC[C@H](OC(=O)Nc3ccccc3)CC1=CC[C@@H]1C2CC[C@]2(C)/C(=N/OC(=O)Nc3ccccc3)CCC12 (stereo not given in full)
inactive: UO-31 1.92 µM | U-251 43.7 µM | A549 7.85 µM | SK-MEL-2 > 100 µM | K562 2.21 µM | HCC 2998 > 100 µM | LOX IMVI 5.32 µM | SF-539 > 100 µM | M14 12.5 µM | SNB-75 5.5 µM | 786-0 > 100 µM | MOLT-4 5.05 µM | OVCAR-8 22.3 µM

C=C=C(C(=O)OC)[S+]([O-])c1ccccc1[N+](=O)[O-] (stereo not given)
inactive: UO-31 > 100 µM | U-251 > 100 µM | A549 > 100 µM | SK-MEL-2 > 100 µM | K562 59.2 µM | HCC 2998 > 100 µM | SF-539 > 100 µM | M14 > 100 µM | SNB-75 > 100 µM | 786-0 > 100 µM | NCI-H226 > 100 µM | MOLT-4 > 100 µM | OVCAR-8 > 100 µM

C=CCNC(=O)N(CCCC(NC(C)=O)C(=O)NCc1ccccc1)Cc1ccccc1 (stereo not given)
inactive: UO-31 > 100 µM | U-251 > 100 µM | A549 > 100 µM | SK-MEL-2 > 100 µM | K562 > 100 µM | LOX IMVI > 100 µM | SF-539 > 100 µM | M14 > 100 µM | SNB-75 > 100 µM | SK-MEL-28 > 100 µM | 786-0 > 100 µM | NCI-H226 > 100 µM | MOLT-4 > 100 µM | OVCAR-8 > 100 µM

CC(C)C1N2CCCCC2[C@@H]2c3[nH]c4ccccc4c3CCN12 (stereo not given in full)
inactive: UO-31 > 100 µM | U-251 > 100 µM | A549 > 100 µM | SK-MEL-2 > 100 µM | K562 > 100 µM | HCC 2998 > 100 µM | SF-539 > 100 µM | M14 > 100 µM | SNB-75 > 100 µM | SK-MEL-28 > 100 µM | 786-0 > 100 µM | MOLT-4 > 100 µM | OVCAR-8 > 100 µM

CC(=O)CCCCO
inactive: UO-31 > 100 µM | U-251 > 100 µM | A549 > 100 µM | SK-MEL-2 > 100 µM | K562 > 100 µM | LOX IMVI > 100 µM | SF-539 > 100 µM | M14 > 100 µM | SNB-75 > 100 µM | SK-MEL-28 > 100 µM | 786-0 > 100 µM | MOLT-4 > 100 µM | OVCAR-8 > 100 µM

COC1(OC)CC2C=C(S(=O)(=O)c3ccccc3)C1N(Cc1ccccc1)C2=O (stereo not given)
inactive: UO-31 35.5 µM | U-251 34.8 µM | A549 33 µM | K562 35 µM | HCC 2998 60.3 µM | LOX IMVI 16.1 µM | SF-539 21 µM | M14 18.9 µM | SNB-75 36.5 µM | SK-MEL-28 31 µM | 786-0 39.4 µM | NCI-H226 29.9 µM | MOLT-4 23.2 µM | OVCAR-8 23 µM

COc1ccc(C2SCC(=O)N2NC(=O)c2ccncc2)cc1F (stereo not given)
inactive: U-251 > 100 µM | A549 > 100 µM | SK-MEL-2 > 100 µM | HCC 2998 > 100 µM | LOX IMVI > 100 µM | M14 > 100 µM | SNB-75 > 100 µM | SK-MEL-28 > 100 µM | NCI-H226 > 100 µM

Nc1nc(SCc2ccc([N+](=O)[O-])cc2)nc2c1ncn2C1OC(COP(=O)(O)O)C(O)C1O (stereo not given)
inactive: U-251 > 100 µM | A549 > 100 µM | SK-MEL-2 > 100 µM | K562 > 100 µM | HCC 2998 > 100 µM | LOX IMVI > 100 µM | SF-539 > 100 µM | M14 > 100 µM | SNB-75 > 100 µM | SK-MEL-28 > 100 µM | NCI-H226 > 100 µM | MOLT-4 > 100 µM | OVCAR-8 > 100 µM

O=C1C=CC2(C=C1)C[C@H](NC(=O)C(F)(F)F)C(=O)O2
inactive: UO-31 > 100 µM | U-251 54.3 µM | A549 > 100 µM | K562 20.4 µM | HCC 2998 46.9 µM | LOX IMVI 22.3 µM | SF-539 34.7 µM | M14 73.8 µM | SNB-75 69 µM | SK-MEL-28 18.5 µM | 786-0 > 100 µM | NCI-H226 > 100 µM | MOLT-4 20.4 µM | OVCAR-8 37.2 µM

CCOc1ccccc1NC(=O)/C=C1\NC(=O)CS1
inactive: UO-31 > 100 µM | U-251 > 100 µM | A549 > 100 µM | SK-MEL-2 > 100 µM | K562 > 100 µM | HCC 2998 > 100 µM | LOX IMVI > 100 µM | SF-539 > 100 µM | M14 > 100 µM | SNB-75 26.9 µM | SK-MEL-28 > 100 µM | 786-0 > 100 µM | NCI-H226 > 100 µM | MOLT-4 > 100 µM | OVCAR-8 > 100 µM

N=C(N)N/N=C(/CC1OC(=O)c2ccccc21)c1ccc2ccccc2c1 (stereo not given)
inactive: UO-31 17.8 µM | U-251 14.6 µM | SK-MEL-2 46.9 µM | K562 24.3 µM | HCC 2998 17.3 µM | LOX IMVI 23.1 µM | SF-539 13.2 µM | M14 16.7 µM | SNB-75 20 µM | SK-MEL-28 18.6 µM | 786-0 17.1 µM | NCI-H226 13.7 µM | MOLT-4 23.6 µM | OVCAR-8 15.8 µM

COc1ccc(C2c3cc4c(cc3OC(O)(CO)C2C(=O)O)OCO4)cc1.COc1ccc(C2c3cc4c(cc3OC3(O)COC(=O)C23)OCO4)cc1 (stereo not given)
inactive: UO-31 29.9 µM | U-251 19.8 µM | A549 36.2 µM | SK-MEL-2 25.9 µM | K562 19.1 µM | HCC 2998 20.2 µM | LOX IMVI 16.5 µM | SF-539 20.7 µM | M14 15.3 µM | SNB-75 30.3 µM | SK-MEL-28 25.2 µM | NCI-H226 22.5 µM | MOLT-4 19.1 µM | OVCAR-8 20.5 µM

COc1cc(-c2cc(=O)c3c(O)c(OC)c(OC)c(OC)c3o2)ccc1O
inactive: UO-31 28.8 µM | U-251 8.97 µM | A549 27.3 µM | SK-MEL-2 17.7 µM | K562 17.8 µM | HCC 2998 34.6 µM | LOX IMVI 16.8 µM | SF-539 11.8 µM | M14 23.3 µM | SK-MEL-28 23.5 µM | 786-0 29.8 µM | MOLT-4 23.1 µM | OVCAR-8 16.3 µM
